In the supplement of paper PMC6045584:
± gives the standard deviation of the averaged measurements.

Tests used:
17-AAG = compound: C=CCNC1=C2C[C@@H](C)C[C@H](OC)[C@H](O)[C@@H](C)/C=C(\C)[C@H](OC(N)=O)[C@@H](OC)/C=C\C=C(/C)C(=O)NC(=CC1=O)C2=O [17-AAG]; experiment: surviving fraction relative to DMSO-only wells; higher = less growth inhibition; settings: exposure time: 5 days
How it was run: (§1)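 Viability was determined by CellTiter-Glo luminescence, expressed as surviving fraction normalised to the median of DMSO-only wells. The cells were log-phase tumour cell lines seeded at 250–500 per well in 384-well plates and, after 24 hours, exposed continuously for five days to inhibitors at 0.5, 1, 5, 10, 50, 100, 500 and 1000 nM. Three screens per line were run, keeping only lines with replicate Pearson r >0.7 and median Z' >0.3.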

VISMODEGIB = compound: CS(=O)(=O)c1ccc(C(=O)Nc2ccc(Cl)c(-c3ccccn3)c2)c(Cl)c1 [VISMODEGIB]; experiment: as above; settings: exposure time: 5 days
How it was run: as §1

Row | Test System | surviving fraction (17-AAG; 0.5 nM) | surviving fraction (17-AAG; 1 nM) | surviving fraction (17-AAG; 5 nM) | surviving fraction (17-AAG; 10 nM) | surviving fraction (17-AAG; 50 nM) | surviving fraction (17-AAG; 100 nM) | surviving fraction (17-AAG; 500 nM) | surviving fraction (17-AAG; 1000 nM) | surviving fraction (VISMODEGIB; 0.5 nM) | surviving fraction (VISMODEGIB; 1 nM) | surviving fraction (VISMODEGIB; 5 nM) | surviving fraction (VISMODEGIB; 10 nM) | surviving fraction (VISMODEGIB; 50 nM) | surviving fraction (VISMODEGIB; 100 nM) | surviving fraction (VISMODEGIB; 500 nM) | surviving fraction (VISMODEGIB; 1000 nM)
1 | DU4475 BREAST | 0.798 ± 0.24 | 0.794 ± 0.15 | 0.764 ± 0.11 | 0.392 ± 0.11 | 0.0277 ± 0.0047 | 0.0283 ± 0.0051 | 0.027 ± 0.0066 | 0.0267 ± 0.0029 | 0.969 ± 0.25 | 1.1 ± 0.28 | 1 ± 0.1 | 0.895 ± 0.29 | 1.1 ± 0.41 | 0.876 ± 0.17 | 0.899 ± 0.22 | 0.977 ± 0.32
2 | H23 LUNG | 0.949 ± 0.026 | 0.939 ± 0.01 | 0.9313 ± 0.0035 | 0.727 ± 0.03 | 0.234 ± 0.0085 | 0.11 ± 0.014 | 0.0333 ± 0.0011 | 0.0323 ± 0.0025 | 0.981 ± 0.01 | 0.997 ± 0.043 | 1.05 ± 0.03 | 1.022 ± 0.0032 | 1 ± 0.069 | 1.16 ± 0.072 | 1.01 ± 0.034 | 1.06 ± 0.067
3 | HCC78 LUNG | 0.814 ± 0.2 | 0.832 ± 0.067 | 0.961 ± 0.12 | 0.511 ± 0.097 | 0.0943 ± 0.0025 | 0.086 ± 0.011 | 0.053 ± 0.013 | 0.0667 ± 0.0021 | 1.08 ± 0.11 | 0.941 ± 0.1 | 0.982 ± 0.14 | 1.11 ± 0.14 | 1.1 ± 0.21 | 1.32 ± 0.2 | 1.04 ± 0.13 | 0.934 ± 0.19
4 | HCC202 BREAST | 0.965 ± 0.13 | 0.988 ± 0.31 | 0.715 ± 0.081 | 0.537 ± 0.17 | 0.264 ± 0.053 | 0.177 ± 0.021 | 0.171 ± 0.038 | 0.161 ± 0.027 | 1.1 ± 0.14 | 0.842 ± 0.13 | 1.06 ± 0.2 | 1.04 ± 0.25 | 0.945 ± 0.46 | 0.785 ± 0.2 | 0.908 ± 0.14 | 0.732 ± 0.14
5 | HCC1395 BREAST | 0.823 ± 0.02 | 0.862 ± 0.035 | 0.957 ± 0.12 | 0.93 ± 0.067 | 1.21 ± 0.12 | 1.13 ± 0.18 | 0.899 ± 0.15 | 0.803 ± 0.1 | 0.717 ± 0.018 | 0.758 ± 0.12 | 0.818 ± 0.031 | 0.83 ± 0.12 | 0.681 ± 0.14 | 0.695 ± 0.055 | 0.676 ± 0.052 | 0.772 ± 0.076
6 | HCC1806 BREAST | 0.78 ± 0.076 | 0.783 ± 0.065 | 0.571 ± 0.12 | 0.123 ± 0.056 | 0.0273 ± 0.0015 | 0.0247 ± 0.0015 | 0.023 ± 0.001 | 0.0243 ± 0.0015 | 0.902 ± 0.088 | 1.03 ± 0.043 | 1.18 ± 0.1 | 1.05 ± 0.083 | 0.932 ± 0.093 | 0.98 ± 0.1 | 0.896 ± 0.11 | 0.904 ± 0.12
7 | HCC1954 BREAST | 0.387 ± 0.00071 | 0.292 ± 0.071 | 0.195 ± 0.011 | 0.131 ± 0.03 | 0.0668 ± 0.012 | 0.0498 ± 0.0053 | 0.0425 ± 0.0042 | 0.045 ± 0.0064 | 0.673 ± 0.096 | 0.637 ± 0.0088 | 0.72 ± 0.015 | 0.786 ± 0.03 | 0.768 ± 0.18 | 0.6402 ± 0.0025 | 0.618 ± 0.01 | 0.546 ± 0.025
8 | HCT15 LARGE INTESTINE | 0.858 ± 0.04 | 0.852 ± 0.011 | 0.864 ± 0.029 | 0.792 ± 0.078 | 0.479 ± 0.0076 | 0.264 ± 0.0079 | 0.072 ± 0.0027 | 0.0573 ± 0.0025 | 0.966 ± 0.01 | 1.04 ± 0.052 | 0.998 ± 0.033 | 1.02 ± 0.072 | 0.931 ± 0.034 | 1.01 ± 0.048 | 0.9417 ± 0.0025 | 1.03 ± 0.033
9 | HELA CERVIX | 0.944 ± 0.039 | 0.921 ± 0.037 | 0.924 ± 0.045 | 0.906 ± 0.043 | 0.68 ± 0.092 | 0.482 ± 0.038 | 0.219 ± 0.015 | 0.0948 ± 0.0088 | 1 ± 0.046 | 1.05 ± 0.052 | 0.9757 ± 0.0083 | 1.02 ± 0.07 | 1.0558 ± 0.001 | 1.14 ± 0.041 | 1.04 ± 0.058 | 1.15 ± 0.019
10 | HOS BONE | 0.924 ± 0.029 | 0.932 ± 0.037 | 0.934 ± 0.027 | 0.93 ± 0.017 | 0.914 ± 0.024 | 0.442 ± 0.11 | 0.0503 ± 0.0011 | 0.0427 ± 0.0032 | 1 ± 0.013 | 1.01 ± 0.015 | 1.012 ± 0.0066 | 1.03 ± 0.026 | 0.991 ± 0.026 | 1.03 ± 0.05 | 1.01 ± 0.029 | 1.01 ± 0.079
11 | HOSMNG BONE | 0.981 ± 0.039 | 0.977 ± 0.072 | 0.972 ± 0.051 | 0.978 ± 0.068 | 1.08 ± 0.028 | 0.506 ± 0.014 | 0.14 ± 0.014 | 0.11 ± 0.0031 | 0.972 ± 0.12 | 0.993 ± 0.15 | 0.942 ± 0.095 | 0.906 ± 0.067 | 0.942 ± 0.15 | 0.991 ± 0.093 | 1.02 ± 0.23 | 1.05 ± 0.16
12 | HSSYII SYNOVIAL | 0.869 ± 0.049 | 0.812 ± 0.035 | 0.888 ± 0.045 | 0.868 ± 0.022 | 0.764 ± 0.039 | 0.519 ± 0.017 | 0.122 ± 0.0035 | 0.114 ± 0.0093 | 0.894 ± 0.023 | 0.931 ± 0.038 | 0.904 ± 0.078 | 0.906 ± 0.037 | 0.812 ± 0.027 | 0.831 ± 0.03 | 0.795 ± 0.026 | 0.771 ± 0.014
13 | HT1080 SOFT TISSUE | 0.969 ± 0.031 | 1 ± 0.061 | 1.08 ± 0.015 | 1.048 ± 0.01 | 0.389 ± 0.017 | 0.204 ± 0.028 | 0.148 ± 0.0085 | 0.146 ± 0.0015 | 1.021 ± 0.01 | 0.971 ± 0.028 | 1 ± 0.014 | 0.978 ± 0.03 | 0.968 ± 0.046 | 0.991 ± 0.048 | 0.962 ± 0.024 | 0.994 ± 0.06
14 | HU09 BONE | 0.918 ± 0.045 | 0.935 ± 0.14 | 0.542 ± 0.025 | 0.131 ± 0.038 | 0.0283 ± 0.00058 | 0.0237 ± 0.0031 | 0.0233 ± 0.0029 | 0.0233 ± 0.0038 | 1.03 ± 0.079 | 0.973 ± 0.088 | 1.07 ± 0.14 | 1.08 ± 0.17 | 0.913 ± 0.04 | 0.898 ± 0.066 | 0.802 ± 0.036 | 0.886 ± 0.08
15 | HUO3N1 BONE | 0.881 ± 0.025 | 0.888 ± 0.042 | 0.97 ± 0.022 | 0.872 ± 0.046 | 0.591 ± 0.046 | 0.443 ± 0.025 | 0.359 ± 0.026 | 0.316 ± 0.036 | 1.04 ± 0.04 | 0.976 ± 0.038 | 1.06 ± 0.061 | 1.03 ± 0.062 | 0.977 ± 0.025 | 0.962 ± 0.052 | 0.994 ± 0.03 | 0.901 ± 0.059
16 | JIMT1 BREAST | 0.833 ± 0.034 | 0.823 ± 0.062 | 0.84 ± 0.046 | 0.754 ± 0.1 | 0.0973 ± 0.016 | 0.0685 ± 0.0066 | 0.062 ± 0.0026 | 0.0647 ± 0.0033 | 0.906 ± 0.044 | 0.89 ± 0.016 | 0.9112 ± 0.0064 | 0.948 ± 0.041 | 0.849 ± 0.035 | 0.972 ± 0.021 | 0.881 ± 0.053 | 0.952 ± 0.057
